Measured values from US7670591B2, “Heteroaryl substituted benzoxazoles” (AstraZeneca AB, priority 2006, dated 2010).
pIC50, pKd: −log10 of the molar value. Read-outs that look alike come from different tables or passages of the source. Each block holds one compound with its values, some of them ahead of it.

Experiments:
synthetic Aβ 1-40 = target: T1, synthetic Aβ 1-40 (Homo sapiens, UniProt P05067); assay: Competition binding assay ([3H]PIB as radioligand)
T1 construct: using synthetic Aβ 1-40 in 2.7 nM of
T1 sequence (P05067 672-711 limits assumed): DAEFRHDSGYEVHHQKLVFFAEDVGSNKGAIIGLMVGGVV
Method: Competition binding was performed in 384-well FB filter plates using synthetic Aβ 1-40 in 2.7 nM of [^3H]PIB (or another ^3H-labeled radioligand when so mentioned) in phosphate buffer at pH 7.5, by adding various concentrations of non-radioactive compounds originally dissolved in DMSO. The binding mixture was incubated for 30 min at room temperature, followed by vacuum filtration, and subsequentially by washing twice with 1% Triton-X100. Scintillation fluid was thereafter added to the collected Aβ 1-40 on the filter plate, and the activity of the bound remaining radioligand ([^3H]PIB or another ^3H-labeled radioligand) was measured using 1450 Microbeta from PerkinElmer (FIG. 1). Specific binding was determined according to the competion binding assay described herein. The determined IC50's in the competion binding assays (using [^3H]PIB as radioligand) of 5 compounds of the present invention are shown in Table 2.

[1] = target: T2, human synthetic Aβ 1-40 fibrils (Homo sapiens, UniProt P05067); assay: Saturation binding experiments; settings: amyloid Aβ 1-40 fibrils in vitro, AVG; for pKd: two site binding
T2 construct: human synthetic Aβ 1-40 fibrils
T2 sequence (P05067 672-711 limits assumed): as above
Method: Saturation binding experiments were performed in 96-well polypropylene deep well plates. 2 μM human synthetic Aβ 1-40 fibrils in phosphate buffer pH 7.5, or buffer alone as control, were incubated with increasing concentration of a ^3H-labeled radioligand of the present invention for 1 hr at room temperature. The radioactivity still bound to the Aβ 1-40 fibrils at the end of the incubation was detected on FB filters after filtration in a Brandel apparatus using a wash buffer containing 0.1% Triton-X100. Results were corrected for nonspecific, nondisplaceable binding defined as the number of counts from wells without Aβ 1-40 fibrils (replaced with assay buffer).

[2] = cited from earlier work
[3] = [3H]PIB as radioligand, Table 2

Structure (SMILES): CN(C)c1ccc(-c2nc3ccc(O)cc3o2)cn1 [Example 2, 2-[6-(Dimethylamino)pyridin-3-yl]-1,3-benzoxazol-6-ol]
pIC50 (synthetic Aβ 1-40; [3]): 7.07

Structure (SMILES): CNc1ccc(-c2nc3ccc(OC)cc3o2)cn1 [Example 3, 5-(6-Methoxy-1,3-benzoxazol-2-yl)-N-methylpyridin-2-amine]
pIC50 (synthetic Aβ 1-40; [3]): 6.73

Structure (SMILES): CNc1ccc(-c2nc3ccc(O)cc3o2)cn1 [Example 5, 2-[6-(Methylamino)pyridin-3-yl]-1,3-benzoxazol-6-ol]
Bmax 1 ([1]; site 1): 0.9099 pmol/nmol Ab
Bmax 2 ([1]; site 2): 4.298 pmol/nmol Ab
pKd ([1]; site 1, read-out: Kd 1): 8.27
pKd ([1]; site 2, read-out: Kd 2): 7.20
pIC50 (synthetic Aβ 1-40; [3]): 6.74
pIC50 (synthetic Aβ 1-40; amyloid Aβ 1-40 fibrils in vitro, AVG): 6.74

Structure (SMILES): CN(C)c1ccc(-c2nc3ccc(I)cc3o2)cc1 [IBOX]
brain entrance ([2]; compared with TZDM): relatively higher brain entrance
clearance from normal brain tissue ([2]; compared with related analogues): relatively more rapid clearance from normal brain tissue

More lines, now with the values ahead:

pIC50 (synthetic Aβ 1-40; [3]): 6.69
Structure (SMILES): COc1ccc2nc(-c3ccc(N(C)C)nc3)oc2c1 [Example 1, 5-(6-Methoxy-1,3-benzoxazol-2-yl)-N,N-dimethylpyridin-2-amine]

pIC50 (synthetic Aβ 1-40; [3]): 4.81
Structure (SMILES): COc1ccc2nc(-c3ccc(N(C)C(C)=O)nc3)oc2c1 [Example 4, N-[5-(6-Methoxy-1,3-benzoxazol-2-yl)pyridin-2-yl]-N-methylacetamide]
